Source: patent US5650415A, “Quinoline compounds” (Sugen, Inc., priority 1995, dated 1997)

Experiments:
[1] = molecular target: T1, PDGFR (Homo sapiens, UniProt P09619); test: PDGF-R Cellular Assay (ELISA); format: cell-based; settings: U1242 human glioblastoma cells
T1 construct: endogenous in cells; host or cells: U1242 MG human glioblastoma cells
Description: (§1) The following examples illustrates the ability of the exemplary compounds to inhibit receptor tyrosine kinases, such as HER2 and/or EGFR. The following target cells were used for cellular kinase assays: NIH3T3 clone C7 (Honegger et al., supra) engineered to over-express human EGF receptor; NIH3T3 cells engineered to over-express a chimeric receptor containing the EGFR extracellular domain and the HER2 intracellular kinase domain; the human mammary carcinoma line BT474 (ATCC HTB2) expressing HER2; and the human glioblastoma line U1242 that expresses PDGFR-beta. Growth assays were carried out using human mammary epithelial SKBR3 (ATCC HTB30) cells (SKBR3 cells over-express HER2), SKOV3 (AT(D(D HTB77) human ovarian cancer cell line (SKOV3 cells also over-express HER2), A431 cells (A431 cells over-express EGFR) MCF7 human breast carcinoma cells, MCF7 cells overexpressing the HER2 kinase (MCF7-HER2), NIH3T3 cells, and NIH3T3 cells overexpressing the HER2 kinase (3T3-HER2.
The PDGF cellular kinase assay was carried out as follows: cells are lysed in 0.2M Hepes, 0.15M NaCl, 10% VN glycerol, 0.04% Triton X-100, 5 mM EDTA, 5 mM Na+ vanadate and 2 mM Na+ pyrophosphate; cell lysates are then added to an ELISA plate coated with an anti-PDGF receptor antibody (Genzyme); ELISA plates are coated at 0.5 μg of antibody/well in 150 μl of PBS for 18 hours at 4° C. prior to the addition of the lysate; the lysate is incubated in the coated plates for 1 hour and then washed four times in TBST (35 mM Tris-HCl pH 7.0, 0.15M NaCl, 0.1% Triton X100); anti-phosphotyrosine antibody (100 μl in PBS) is added and the mixture is incubated for 30 minutes at room temperature; the wells were then washed four times in TBST, a secondary antibody conjugated to POD (TAGO) is added to each well, and the treated well are incubated for 30 minutes at room temperature; the wells are then washed four times in TBST, ABTS/H2 O2 solution is added to each well and the wells are incubated for two minutes; absorbance is then measured at 410 nm.
U1242 MG cells were plated in 96-well plates at a concentration of 5×10^4 cells/well in cultured media containing 0.5% FBS. The cells were incubated for 24 hours. The cells were then treated with a particular compound for 2 hours followed by the addition of 100 ng/ml PDGF-BB and incubation for 10 minutes.
Cells were lysed in 0.2M Hepes, 0.15M NaCl, 10% VN glycerol, 0.04% Triton X-100, 5 mM EDTA, 5 mM Na^+ vanadate and 2 mM Na^+ pyrophosphate. Cell lysates were then added to an ELISA plate coated with an anti-PDGF receptor antibody (Genzyme). ELISA plates were coated at 0.5 μg of antibody/well in 150 μl of PBS for 18 hours at 4° C. prior to the addition of the lysate.
The lysate was incubated in the coated plates for 1 hour and then washed four times in TBST (35 mM Tris-HCl pH 7.0, 0.15M NaCl, 0.1% Triton X-100). Anti-phosphotyrosine antibody (100 μl in PBS) was added and the mixture was incubated for 30 minutes at room temperature. The wells were then washed four times in TBST, a secondary antibody conjugated to POD (TAGO) was added to each well, and the treated well were incubated for 30 minutes at room temperature. The wells were then washed four times in TBST, ABTS/H2 O2 solution was added to each well and the wells were incubated for two minutes. Absorbance was then measured at 410 nm.

[2] = molecular target: T2, EGFR (Homo sapiens, UniProt P00533); test: EGFR Whole Cell Kinase Assay (ELISA); format: cell-based; settings: NIH3T3 clone C7 over-expressing human EGF receptor
T2 construct: expressed in transfected cells; host or cells: NIH3T3 clone C7 (EGFR/C7)
Description: as §1
EGFR Whole Cell Kinase Assay
EGFR kinase activity (EGFR-3T3 assay) in whole cells was measured as described below:
A. Coat ELISA plates (Corning, 96 well, Cat. #25805-96) with 05-101 antibody at 0.5 μg per well in PBS, 150 μl final volume/well, and store overnight at 4.sunburst. C. Coated plates are good for up to 10 days when stored at 4.sunburst. C.
B. On day of use, remove coating buffer and replace with blocking buffer (5% Carnation Instant NonFat Dry Milk in PBS). Incubate the plate, shaking, at room temperature (about 23.sunburst. C. to 25.sunburst. C.) for 30 minutes. Just prior to use, remove blocking buffer and wash plate 4 times with TBST buffer.
A. EGFR/C7 cell line (Honegger, et al., supra) can be used for this assay.
B. Choose dishes having 80-90% confluence for the experiment. Trypsinize cells and stop reaction by adding 10% CS DMEM medium. Suspend cells in DMEM medium (10% CS DMEM medium) and centrifuge once at 1000 rpm, and once at room temperature for 5 minutes.
C. Resuspend cells in seeding medium (DMEM, 0.5% bovine serum), and count the cells using trypan blue. Viability above 90% is acceptable. Seed cells in DMEM medium (0.5% bovine serum) at a density of 10,000 cells per well, 100 μl per well, in a 96 well microtiter plate. Incubate seeded cells in 5% CO2 at 37.sunburst. C. for about 40 hours.
A. Check seeded cells for contamination using an inverted microscope. Dilute drug stock (10 mg/ml in DMSO) 1:10 in DMEM medium, then transfer 5 μl to a test well for a final drug dilution of 1:200 and a final DMSO concentration of […]. Control wells receive DMSO alone. Incubate in 5% CO2 at 37° C. for one hour.
B. Prepare EGF ligand: dilute stock EGF in DMEM so that upon transfer of 10 μl dilute EGF (1:12 dilution), 25 nM final concentration is attained.
C. Prepare fresh HNTG* sufficient for 100 μl per well; and place on ice.
D. After two hours incubation with drug, add prepared EGF ligand to cells, 10 μl per well, to yield a final concentration of 25 nM. Control wells receive DMEM alone. Incubate, shaking, at room temperature, for 5 minutes.
E. Remove drug, EGF, and DMEM. Wash cells twice with PBS. Transfer HNTG* to cells, 100 μl per well. Place on ice for 5 minutes. Meanwhile, remove blocking buffer from other ELISA plate and wash with TBST as described above.
F. With a pipette tip securely fitted to a micropipettor, scrape cells from plate and homogenize cell material by repeatedly aspirating and dispensing the HNTG* lysis buffer. Transfer lysate to a coated, blocked, and washed ELISA plate. Incubate shaking at room temperature for one hour.
G. Remove lysate and wash 4 times with TBST. Transfer freshly diluted anti-Ptyr antibody to ELISA plate at 100 μl per well. Incubate shaking at room temperature for 30 minutes in the presence of the anti-Ptyr antiserum (1:3000 dilution in TBST).
H. Remove the anti-Ptyr antibody and wash 4 times with TBST. […]

T1 sequence (P09619 33-1106): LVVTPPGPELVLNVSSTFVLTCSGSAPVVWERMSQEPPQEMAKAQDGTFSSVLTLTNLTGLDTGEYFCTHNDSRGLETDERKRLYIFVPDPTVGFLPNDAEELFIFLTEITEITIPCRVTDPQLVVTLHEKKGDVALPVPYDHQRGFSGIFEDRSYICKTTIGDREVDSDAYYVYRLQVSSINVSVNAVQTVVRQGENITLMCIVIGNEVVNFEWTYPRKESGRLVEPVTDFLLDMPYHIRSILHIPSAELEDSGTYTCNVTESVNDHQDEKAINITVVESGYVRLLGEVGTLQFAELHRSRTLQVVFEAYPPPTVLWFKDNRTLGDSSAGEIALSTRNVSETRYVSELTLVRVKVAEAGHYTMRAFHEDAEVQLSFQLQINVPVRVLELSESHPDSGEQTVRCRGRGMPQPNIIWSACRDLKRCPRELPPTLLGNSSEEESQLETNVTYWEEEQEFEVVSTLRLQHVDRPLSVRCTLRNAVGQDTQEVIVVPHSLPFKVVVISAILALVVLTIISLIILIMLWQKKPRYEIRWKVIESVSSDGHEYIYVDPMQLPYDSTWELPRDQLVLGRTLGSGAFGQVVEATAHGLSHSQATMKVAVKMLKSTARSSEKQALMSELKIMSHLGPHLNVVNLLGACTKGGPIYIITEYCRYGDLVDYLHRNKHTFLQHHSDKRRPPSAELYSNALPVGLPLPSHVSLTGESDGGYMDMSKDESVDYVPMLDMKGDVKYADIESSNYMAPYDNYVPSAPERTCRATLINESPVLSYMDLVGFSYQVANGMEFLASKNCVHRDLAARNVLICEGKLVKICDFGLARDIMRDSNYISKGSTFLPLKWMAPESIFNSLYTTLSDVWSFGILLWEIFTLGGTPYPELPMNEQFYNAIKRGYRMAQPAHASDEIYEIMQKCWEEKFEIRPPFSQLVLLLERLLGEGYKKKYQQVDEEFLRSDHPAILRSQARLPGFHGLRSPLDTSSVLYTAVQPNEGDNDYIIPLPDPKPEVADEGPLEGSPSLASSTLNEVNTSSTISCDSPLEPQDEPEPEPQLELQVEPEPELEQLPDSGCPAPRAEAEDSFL
T2 sequence (P00533 25-1210): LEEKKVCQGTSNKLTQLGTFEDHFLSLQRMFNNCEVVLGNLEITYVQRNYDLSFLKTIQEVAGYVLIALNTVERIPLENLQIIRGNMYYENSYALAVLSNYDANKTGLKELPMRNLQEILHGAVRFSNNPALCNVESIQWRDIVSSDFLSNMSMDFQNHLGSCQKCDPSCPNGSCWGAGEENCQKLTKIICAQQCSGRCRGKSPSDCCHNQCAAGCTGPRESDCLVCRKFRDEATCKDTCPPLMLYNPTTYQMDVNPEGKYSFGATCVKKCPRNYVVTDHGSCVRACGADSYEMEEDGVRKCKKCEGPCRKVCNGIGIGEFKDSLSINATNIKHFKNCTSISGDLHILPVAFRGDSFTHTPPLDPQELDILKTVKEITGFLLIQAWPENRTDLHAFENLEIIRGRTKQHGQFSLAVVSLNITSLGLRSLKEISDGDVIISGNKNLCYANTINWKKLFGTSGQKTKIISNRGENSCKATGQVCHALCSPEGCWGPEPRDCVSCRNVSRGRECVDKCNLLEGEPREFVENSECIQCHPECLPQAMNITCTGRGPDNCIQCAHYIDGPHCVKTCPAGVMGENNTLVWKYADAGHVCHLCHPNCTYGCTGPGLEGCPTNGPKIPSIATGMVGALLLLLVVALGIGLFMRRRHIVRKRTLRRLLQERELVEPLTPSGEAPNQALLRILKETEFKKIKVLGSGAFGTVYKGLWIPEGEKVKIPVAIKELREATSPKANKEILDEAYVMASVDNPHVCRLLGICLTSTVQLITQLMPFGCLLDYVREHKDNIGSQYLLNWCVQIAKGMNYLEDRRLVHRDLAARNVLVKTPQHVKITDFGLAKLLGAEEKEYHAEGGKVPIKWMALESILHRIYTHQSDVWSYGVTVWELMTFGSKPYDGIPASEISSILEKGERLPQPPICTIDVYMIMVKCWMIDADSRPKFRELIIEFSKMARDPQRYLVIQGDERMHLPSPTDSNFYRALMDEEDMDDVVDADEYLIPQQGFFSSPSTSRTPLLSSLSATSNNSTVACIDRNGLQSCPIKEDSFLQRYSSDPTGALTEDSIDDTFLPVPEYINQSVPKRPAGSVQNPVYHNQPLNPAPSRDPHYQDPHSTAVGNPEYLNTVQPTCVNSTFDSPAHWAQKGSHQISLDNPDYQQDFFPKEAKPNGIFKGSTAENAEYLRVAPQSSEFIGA

| SMILES | IC50 [1] [µM] | IC50 [2] [µM] |
| --- | --- | --- |
| CCOC(=O)c1cnc2ccc(C(F)(F)F)cc2c1Nc1cccc(C(F)(F)F)c1 [Compound A721, 3-Ethoxycarbonyl-4-(3-trifluoromethylphenylamino)-6-trifluoromethylquinoline] | > 100 | > 100 |
| CCOC(=O)c1cnc2c(F)ccc(F)c2c1Sc1cccc(C(F)(F)F)c1 [Compound A713, 3-Ethoxycarbonyl-5,8-difluoro-4-(3-trifluoromethylphenylmercapto)quinoline] | > 50 | > 100 |
| CCOC(=O)c1cnc2ccc(C(F)(F)F)cc2c1Nc1ccc(C(F)(F)F)cc1 [Compound A722, 3-Ethoxycarbonyl-4-(4-trifluoromethylphenylamino)-6-trifluoromethylquinoline] | > 100 | > 100 |
| CCOC(=O)c1cnc2cc(Cl)c(F)cc2c1Sc1ccc(Cl)cc1 [Compound A731, 7-Chloro-4-(4-chlorophenylmercapto)-6-fluoro-3-ethoxycarbonylquinoline] | > 50 | > 50 |
| CCOC(=O)c1cnc2ccc(C(F)(F)F)cc2c1Nc1cccc(Br)c1 [Compound A716, 4-(3-Bromophenylamino)-3-ethoxycarbonyl-6-trifluoromethylquinoline] | > 100 | > 100 |
| CCOC(=O)c1cnc2c(F)ccc(F)c2c1Sc1ccc(Cl)cc1 [Compound A732, 4-(4-Chlorophenylmercapto)-5,8-difluoro-3-ethoxycarbonylquinoline] | > 50 | > 100 |
| CCOC(=O)c1cnc2c(F)cc(F)cc2c1Sc1ccc(Cl)cc1 [Compound A730, 4-(4-Chlorophenylmercapto)-6,8-difluoro-3-ethoxycarbonylquinoline] | > 50 | > 50 |
